Assays:
IL-1β production [1] = experiment: P. acnes-induced IL-1β production in ThP-1 monocytes (ELISA); type: cell-based; details: Homo sapiens; ThP-1 cells pre-treated 24 h, then stimulated with P. acnes; read-out: IC50 of inhibition of IL-1β production
Protocol: Bacterial strain and conditions of growth. P. acnes strain 6919 was obtained from the American Type Culture Collection (Manassas, Va.) and P. acnes strains RON and PIE were isolated from patient with joint infection. All strains were grown under anaerobic conditions in reinforced clostridial liquid and solid medium (RCM) (Difco Laboratories, Detroit, Mich.). P. acnes was transferred from the bacterial stock onto RCM agar plate and incubated for 5 days under anaerobic condition by using a GasPak™ EZ Anaerobic Container System (Becton Dickinson & Co, Sparks Md., USA). A single colony was transferred into 100 ml RCM and grown as described above. Bacterial suspension was then store frozen at −80° C. in presence of 10% glycerol final. […]
ELISA. Human IL-1β, IL-8, hBD-2 and TNF-α protein concentration were measured in the supernatants of stimulated cells using various ELISA Sets (all from Ready-Set-Go from eBioscience, except hBD-2 measurements: Human DEFB4A/BD-2 ELISA Kit from LSBio) according to the manufacturer's instructions. […] The optical density was determined at 450 nm at a wavelength correction of 540 nm.
Both molecules, were tested to inhibit the production of IL-1β by the monocytic cell line. […] The production of IL-1β was measured on culture supernatant by ELISA and the viability of cells was estimated by MTT assay (FIG. 2).

TNF-α production = TNF-α production by the monocytic cell line; type: cell-based, human; details: data not shown
Protocol: (§1) ELISA. Human IL-1β, IL-8, hBD-2 and TNF-α protein concentration were measured in the supernatants of stimulated cells using various ELISA Sets (all from Ready-Set-Go from eBioscience, except hBD-2 measurements: Human DEFB4A/BD-2 ELISA Kit from LSBio) according to the manufacturer's instructions. We used serial dilutions of recombinant human IL-1β, IL-8, hBD-2 and TNF-α for standard curve. The optical density was determined at 450 nm at a wavelength correction of 540 nm.
Both molecules, were tested to inhibit the production of IL-1β by the monocytic cell line. ThP-1 cells were pretreated with diclazuril and meclozine, at the concentrations ranging from 0.39 to 50 μM, for 24 h and then stimulated with P. acnes suspension as described in Materials and Methods. The production of IL-1β was measured on culture supernatant by ELISA and the viability of cells was estimated by MTT assay (FIG. 2).

JNK = experiment: Western blot of p-JNK/JNK in P. acnes-stimulated HaCaT cells; type: cell-based, human; details: 25 μM, 24 h pre-treatment
Protocol: (§2) Western Blot analysis. Whole cell protein extracts (25 μg) were separated by electrophoresis (LDS-PAGE) under denaturing conditions with NuPAGE Novex 4-12% Bis-Tris gel (1 mm, 12 wells, Invitrogen, UK) and proteins were transferred onto nitrocellulose membranes and saturated in 20 ml of saturation buffer consisting of TBS 1× (Tris Buffered Saline) containing 200 mM Tris, 1.4 M NaCl (pH 7.6), 5% no fat milk, 0.1% Tween 20 for 1 h. […] After washing to remove unbound antibodies, bound primary antibodies were detected by incubation for 1 h using secondary antibody against rabbit- and mouse IgG (Santa Cruz Biotechnology, SC-2357, 1:5000 and SC-2005, 1:5000, respectively). Unbound material was removed by washing and peroxidase activity was detected in a chemiluminescence assay (WesternBright ECL, Advansta, Menlo Park, USA). […]

mTOR = experiment: Western blot of p-mTOR/mTOR in P. acnes-stimulated HaCaT cells; type: cell-based, human; details: 25 μM, 24 h pre-treatment
Protocol: as §2

IL-1β production [2] = experiment: PGN- and LTA-induced IL-1β production in ThP-1 monocytes (ELISA); type: cell-based, human; details: ThP-1, 6.25 μM, 24 h pre-treatment, PGN or LTA 5-20 μg/ml
Protocol: as §1

Row | Structure (SMILES) | IC50 (IL-1β production [1]) | inhibition of TNF-α production (TNF-α production) | phosphorylation of JNK induced by P. acnes (JNK) | phosphorylation of mTOR induced by P. acnes (mTOR) | decrease of IL-1β production (average) (IL-1β production [2])
1 | N#CC(c1ccc(Cl)cc1)c1c(Cl)cc(-n2ncc(=O)[nH]c2=O)cc1Cl (stereo not shown) [diclazuril, Diclazuril] | ~3 µM | no effect | did not cause any changed | did not cause any changed | 64%
2 | Cc1cccc(CN2CCN(C(c3ccccc3)c3ccc(Cl)cc3)CC2)c1 (stereo not shown) [meclozine, Meclozine] | ~6 µM | no effect | did not cause any changed | did not cause any changed | 36%
